In US12433865B2, “Compositions comprising PGI2-receptor agonists and processes for the preparation thereof” (Arena Pharmaceuticals, Inc., priority 2018, dated 2025):

Experiment: Release (dissolution) profile of capsules, USP Apparatus 2 (paddle)
Format: physicochemical
Details: 0.04 mg capsule; for Release rate (percentage of Compound 1 released over time): Poloxamer 188:food grade GMS 50:50
From the text: USP Apparatus 2 (Paddle Apparatus) is described, for example, in the United States Pharmacopeial Convention, Feb. 1, 2012, Chapter <711> (“Dissolution”), incorporated by reference herein in its entirety. See http://www.usp.org/sites/default/files/usp_pdf/EN/USPNF/revisions/m99470-gc_711.pdf. The assembly from Apparatus 1 is used, except that a paddle formed from a blade and a shaft is used as the stirring element. The shaft is positioned so that its axis is not more than 2 mm from the vertical axis of the vessel at any point and rotates smoothly without significant wobble that could affect the results. The vertical center line of the blade passes through the axis of the shaft so that the bottom of the blade is flush with the bottom of the shaft. A distance of 25±2 mm between the bottom of the blade and the inside bottom of the vessel is maintained during the test. The metallic or suitably inert, rigid blade and shaft comprise a single entity. A suitable two-part detachable design may be used provided the assembly remains firmly engaged during the test. The paddle blade and shaft may be coated with a suitable coating so as to make them inert. The dosage unit is allowed to sink to the bottom of the vessel before rotation of the blade is started. A small, loose piece of nonreactive material, such as not more than a few turns of wire helix, may be attached to dosage units that would otherwise float. Other validated sinker devices may be used.
Unless otherwise specified, the release profiles for capsules were measured using USP Apparatus 2 (paddle).
All release profiles disclosed in Tables 3c-3p were measured with USP Apparatus 2 (paddle) at 50 rpm in 500 mL of aqueous sodium phosphate at a concentration of 0.05 M (pH=6.8). The values in a given table relate to capsules obtained from the same batch. Values shown represent mean values over a number of dissolution tests (“n” in each table) in each case.

release profile post-curing (Poloxamer 188:food grade GMS 50:50, cured 18 hours, one week, two weeks and four weeks post-curing (FIG. 6)): remained substantially the same
Release rate (percentage of Compound 1 released over time) (1 wk (40° C.) storage, 30 min): 11.1%
Release rate (percentage of Compound 1 released over time) (1 wk (40° C.) storage, 60 min): 22.6%
Release rate (percentage of Compound 1 released over time) (1 wk (40° C.) storage, 120 min): 40.1%
Release rate (percentage of Compound 1 released over time) (1 wk (40° C.) storage, 180 min): 59.2%
Release rate (percentage of Compound 1 released over time) (1 wk (40° C.) storage, 240 min): 71.8%
Release rate (percentage of Compound 1 released over time) (1 wk (40° C.) storage, 360 min): 88.4%
Release rate (percentage of Compound 1 released over time) (1 wk (40° C.) storage, 480 min): 92.2%
Release rate (percentage of Compound 1 released over time) (1 wk (40° C.) storage, 600 min): 96.2%
Release rate (percentage of Compound 1 released over time) (1 wk (40° C.) storage, 720 min): 95.3%
Release rate (percentage of Compound 1 released over time) (1 wk (40° C.) storage, 735 min): 96.1%
Release rate (percentage of Compound 1 released over time) (2 wks (40° C.) storage, 30 min): 10.8%
Release rate (percentage of Compound 1 released over time) (2 wks (40° C.) storage, 60 min): 18.3%
Release rate (percentage of Compound 1 released over time) (2 wks (40° C.) storage, 120 min): 36.8%
Release rate (percentage of Compound 1 released over time) (2 wks (40° C.) storage, 180 min): 52.9%
Release rate (percentage of Compound 1 released over time) (2 wks (40° C.) storage, 240 min): 67.4%
Release rate (percentage of Compound 1 released over time) (2 wks (40° C.) storage, 360 min): 83.3%
Release rate (percentage of Compound 1 released over time) (2 wks (40° C.) storage, 480 min): 90.3%
Release rate (percentage of Compound 1 released over time) (2 wks (40° C.) storage, 600 min): 93.8%
Release rate (percentage of Compound 1 released over time) (2 wks (40° C.) storage, 720 min): 93.7%
Release rate (percentage of Compound 1 released over time) (2 wks (40° C.) storage, 735 min): 94.3%
Release rate (percentage of Compound 1 released over time) (4 wks (40° C.) storage, 30 min): 7.3%
Release rate (percentage of Compound 1 released over time) (4 wks (40° C.) storage, 60 min): 17.7%
Release rate (percentage of Compound 1 released over time) (4 wks (40° C.) storage, 120 min): 37.4%
Release rate (percentage of Compound 1 released over time) (4 wks (40° C.) storage, 180 min): 54.6%
Release rate (percentage of Compound 1 released over time) (4 wks (40° C.) storage, 240 min): 70.3%
Release rate (percentage of Compound 1 released over time) (4 wks (40° C.) storage, 360 min): 87.5%
Release rate (percentage of Compound 1 released over time) (4 wks (40° C.) storage, 480 min): 90,9%
Release rate (percentage of Compound 1 released over time) (4 wks (40° C.) storage, 600 min): 93.2%
Release rate (percentage of Compound 1 released over time) (4 wks (40° C.) storage, 720 min): 95.0%
Release rate (percentage of Compound 1 released over time) (4 wks (40° C.) storage, 735 min): 94.3%
Release rate (percentage of Compound 1 released over time) (18 hrs (50° C.) curing, 30 min): 14.3%
Release rate (percentage of Compound 1 released over time) (18 hrs (50° C.) curing, 60 min): 21.8%
Release rate (percentage of Compound 1 released over time) (18 hrs (50° C.) curing, 120 min): 39.9%
Release rate (percentage of Compound 1 released over time) (18 hrs (50° C.) curing, 180 min): 56.3%
Release rate (percentage of Compound 1 released over time) (18 hrs (50° C.) curing, 240 min): 72.6%
Release rate (percentage of Compound 1 released over time) (18 hrs (50° C.) curing, 360 min): 89.2%
Release rate (percentage of Compound 1 released over time) (18 hrs (50° C.) curing, 480 min): 93.5%
Release rate (percentage of Compound 1 released over time) (18 hrs (50° C.) curing, 600 min): 95.7%
Release rate (percentage of Compound 1 released over time) (18 hrs (50° C.) curing, 720 min): 96.9%
Release rate (percentage of Compound 1 released over time) (18 hrs (50° C.) curing, 735 min): 95.6%
Release rate (percentage of Compound 1 released over time) (T = 0 (pre-curing), 30 min): 11.0%
Release rate (percentage of Compound 1 released over time) (T = 0 (pre-curing), 60 min): 18.3%
Release rate (percentage of Compound 1 released over time) (T = 0 (pre-curing), 120 min): 30.1%
Release rate (percentage of Compound 1 released over time) (T = 0 (pre-curing), 180 min): 39.6%
Release rate (percentage of Compound 1 released over time) (T = 0 (pre-curing), 240 min): 48.8%
Release rate (percentage of Compound 1 released over time) (T = 0 (pre-curing), 360 min): 64.1%
SMILES: O=C(O)COC[C@H]1CC[C@H](COC(=O)N(c2ccccc2)c2ccc(Cl)cc2)CC1 [Compound 1, 2-(((1r,4r)-4-(((4-chlorophenyl)(phenyl)carbamoyloxy)methyl)cyclohexyl)methoxy)acetic acid]
